Assay results as given in PubChem BioAssay AID1508612.

Assay: passive permeability, PAMPA, ADME assay (AID 1508612)
Settings: pH 7.4, 30.0 min, 50.0 µM

Row | SMILES | Papp [×10⁻⁶ cm/s]
1 | O=c1[nH]c(N2CCOCC2)nc2c1CCN(Cc1ccc(Cl)cc1F)CC2 | > 1000
2 | O=C(Nc1ccc([S+](=O)([O-])Nc2nccs2)cc1)c1ncn[nH]1 | < 1
3 | Nc1ncnc2c1c(-c1cnc3[nH]ccc3c1)nn2C1CCCC1 | > 1000
4 | Cc1ccc(N2CCC(CNc3nc(-c4ccccc4C(C)C)ncc3C)CC2)cn1 | > 1000
5 | COc1cccc(NS(=O)(=O)c2ccc(NCc3cccc(OC)c3O)cc2)c1 | 603
6 | Cc1cc(-c2nnc3n2CCCCC3)c(C)n1-c1ccncc1 | 24.5
7 | COc1ccc(Cn2c(=O)[nH]c3cc(C(=O)NCCCN4CCCCC4)ccc3c2=O)cc1 | 16.8
8 | Cn1cnc(S(=O)(=O)Nc2cnccc2C(=O)Nc2nc(-c3ccccc3)cs2)c1 | 1.1
9 | Cn1ncnc1[C@H]1c2n[nH]c(=O)c3cc(F)cc(c23)N[C@@H]1c1ccc(F)cc1 | 60.5
10 | COc1ccc2c(c1)N(C[C@H](C)CN(C)C)c1ccccc1S2 | 902
11 | CCCCN(CC)CCNC(=O)c1cc2c(-c3ccc(Cl)cc3)nn(C)c2s1 | > 1000
12 | COc1ccccc1Nc1ccnc(N2CCN(C(=O)c3ccc(F)cc3)CC2)n1 | > 1000
13 | O=C(c1ccc2c(c1)ncn2-c1ccccc1)N1CCCCC1 | 472
14 | Cn1cc(S(=O)(=O)N2CCCCCC2)cc1C(=O)Nc1ccc(Cl)c(C(F)(F)F)c1 | 305
15 | Brc1ccc(-c2csc(N3CCNCC3)n2)cc1 | > 1000
16 | Cn1cc(Cl)c(C2N=C(Nc3nc4ccccc4o3)NC3=C2C(=O)CCC3)n1 (stereo not drawn) | 633
17 | Clc1ccc2ncc(-c3cccc(NC4CNC4)n3)n2c1 | 182
18 | Fc1cnc(-c2ccccc2C(F)F)nc1NCC1CCN(c2cnccn2)CC1 | > 1000
19 | CC[C@@](C)(Nc1ccnc(-c2c[nH]c3ncccc23)n1)C(=O)NCC(F)(F)F | 612
20 | CN(C(=O)c1cn2c(-c3ccc(C(F)(F)F)cc3)cnc2cn1)c1ccc(C#N)cc1 | 874
21 | COc1ccc(-c2nc3sc(CCNC(=O)C(C)(C)C)c(C)n3n2)cc1 | 214
22 | O=C(NC1CCCc2c1cnn2-c1cccc(O)c1)c1ccccn1 (stereo not drawn) | 836
23 | Cc1noc(C)c1S(=O)(=O)Nc1cnccc1C(=O)Nc1nc(-c2ccccc2)cs1 | 339
24 | Cc1ccccc1C(=O)Nc1sc2c(c1C(=O)NCc1ccco1)CCC(C(C)(C)C)C2 (stereo not drawn) | 167
25 | CN(C)C(=O)c1ccc(-c2cc[nH]c(=O)c2N)cc1 | 12.1
26 | CC(=O)c1c(C)c(C(=O)Nc2cccc([S+](=O)([O-])N3CCCCCC3)c2)n(C)c1C | > 1000
27 | O=C(NC[C@H]1Cn2c(-c3ccc(Cl)cc3)cnc2CO1)C1CCCC1 | 108

Row | SMILES | Papp [×10⁻⁶ cm/s]
28 | C=C[C@@]1(C)C[C@H](OC(=O)CSC(C)(C)CNC(=O)[C@@H](N)C(C)C)[C@@]2(C)C(C)CC[C@@]3(CCC(=O)[C@@H]32)[C@H](C)[C@H]1O (stereo partly drawn) | > 1000
29 | CCCCOc1ccccc1C(=O)Nc1ccccc1C(=O)Nc1cccc(S(=O)(=O)C(F)(F)F)c1 | 5.2
30 | Cc1cnc(-c2ccccc2C(C)(C)C)nc1NCc1ccc(-n2ccnn2)cc1 | > 1000
31 | COc1ncc(-c2n[nH]c3c2CC(=O)N(c2ccccc2)C3)cn1 | 33.5
32 | NC(=O)N1CCN(c2nc(-c3ccc(Br)cc3)cs2)CC1 | 958
33 | CCOc1ccc(-c2csc(N3CCC(C(N)=O)CC3)n2)cc1 | > 1000
34 | CCn1nc(C2CCN(C(=O)CCO)CC2)nc1-c1cnc(N)c(-c2nnc(C(C)(C)C)o2)n1 | 188
35 | O=C1c2ccccc2-n2c1nc1ccccc1c2=O | 715
36 | COc1oc(-c2cccc3ccccc23)nc1C(=O)O | 1.44
37 | CCCCNc1oc(-c2cccc3ccccc23)nc1C#N | 38
38 | O=C(Nc1nc(-c2ccccc2)cs1)c1ccncc1NS(=O)(=O)c1ccc(F)cc1F | 798
39 | CCCC1=Nc2cc(C(=O)NC3CCCC3)ccc2Sc2ccc(C)cc21 | 662
40 | Cc1cn(-c2cc(NC(=O)c3ccc(C)c(Nc4nccc(-c5cccnc5)n4)c3)cc(C(F)(F)F)c2)cn1 | 676
41 | Cc1cnc(CNc2nc(-c3cccc(NS(C)(=O)=O)c3)nc3ccccc23)cn1 | > 1000
42 | Cc1ccc(-c2csc(NC(=O)c3ccncc3NS(=O)(=O)c3ccc(C)cc3)n2)cc1 | 530
43 | COc1ccc(-c2cc3nccn3c(Nc3ncccc3C(N)=O)n2)cc1OC | 26.4
44 | CN1CCCC1CCOC(c1cc2nccc(C(=O)O)c2[nH]1)c1ccccc1Cl (stereo not drawn) | 1.1
45 | O=C1CCCC2=C1C(C1CCCCC1Cl)N=C(NC1NC3CCCCC3S1)N2 (stereo not drawn) | 161
46 | Cc1cn2nc(-c3nc(C4CCCN(C(=O)c5ccccc5)C4)no3)cc2c(=O)[nH]1 (stereo not drawn) | 136
47 | CCOC(=O)Nc1cc(-c2ccc(C)c(NS(C)(=O)=O)c2)nn2c(C)nnc12 | 278
48 | COc1cc(-c2c(C#N)c(N)nc3c2c(C)nn3-c2ccc(F)cc2)ccc1O | > 1000
49 | NC(=O)C1CCN(c2nccc(Cl)n2)CC1 | 37.3
50 | CCOc1ccc(OCC)c(NC(=O)C(NS(=O)(=O)c2ccc(Br)s2)c2ccccc2)c1 (stereo not drawn) | 1.1
51 | Cc1nc([N+](=O)[O-])cn1-c1ccc([N+](=O)[O-])cc1 | 27.9
52 | O=C(C1CCN(c2nc(-c3ccc(Br)cc3)cs2)CC1)N1CCOCC1 | 236
53 | NC(=O)C1CCN(c2nc(-c3ccccc3Br)cs2)CC1 | 462
